Assay results reported in patent US9273015B2, “s-Triazine compounds, pharmaceutical compositions and methods of using the same” (NEW YORK UNIVERSITY, priority 2010, dated 2016).
Values after ≈ are worked out from the molar mass of the structure shown. “Also recorded” adds a separate entry of the source. Where two headings read alike, the source gives them in different places.

Legend:
E. coli D31 = assay: Growth inhibition (broth microdilution), E. coli D31; format: cell-based, Escherichia coli
Source text: (§1) The antimicrobial activity of each peptide can be tested following standard broth microdilution protocols recommended by the National Committee for Clinical Laboratory Standard. Multidrug-resistant Staphylococcus aureus strain (ATCC BAA-44) and Acinetobacter baumannii (ATCC BAA-747) can be used in this study, as well as Ampicillin- and streptomycin-resistant Escherichia coli (D31), obtained from the E. coli Genetic Resource Center (Yale University, New Haven, Conn.). Bacteria can be grown overnight in Tryptic Soy broth at 37° C. Then, cultures are diluted in Mueller-Hinton broth to a final concentration range of 2×10^4 to 2×10^5 CFU/ml. Bacterial inocula are incubated at 37° C. in phosphate-buffered saline (PBS) buffer (pH7.2) with various dilutions of peptide stock. The 18-hour absorbance data are used to calculate the percentage of inhibition for each sample by comparison with the absorbance of cultures without sample. Bacterial growth is measured by turbidity as optical density at 600 nm (OD600), using a Genesys 5 Spectrophotometer (Rochester, N.Y.) or equivalent instrument. All assays can be carried out in triplicate. The concentration of peptide that results in 50% inhibition of growth is recorded as the IC50. In addition the concentration of agents needed can be monitored to reduce the bacterial population by three logs, IC99.9. This is a more rigorous indicator of the amount needed to prevent an infection.
(§2) The antimicrobial activity of each triazine compound was tested by following standard broth microdilution protocols recommended by the National Committee for Clinical Laboratory Standard. All compounds were initially tested against Bacillus subtilis (ATCC 6633; Rockville, Md.). Bacteria were grown in Mueller Hinton Broth (MHB) at 37° C. for overnight. Then, cultures were diluted in MHB to a final concentration of 2×10^4 to 2×10^5 CFU/mL. Bacterial inocula were incubated at 37° C. in PBS buffer (pH 7.2) with varying concentrations of 2-fold dilution of triazine stocks. The 18-hour absorbance data were used to calculate the percent inhibition for each sample by comparing with the absorbance of cultures without triazine compounds. Bacterial growth was measured by turbidity as optical density at 600 nm using a Genesys 5 Spectrophotometer (Rochester, N.Y.).

B. subtilis = assay: Growth inhibition (broth microdilution), B. subtilis; format: cell-based; conditions: Bacillus subtilis; for MIC50: read-out: B. Subtilis MIC50; for MIC90: read-out: B. Subtilis MIC90; for IC50: Table 3
Method: as §2

S. aureus = assay: Growth inhibition (broth microdilution), S. aureus; format: cell-based, Staphylococcus aureus; conditions: for IC50: Table 3
Source text: as §1, §2

fresh sheep erythrocytes = assay: Hemolytic activity; format: cell-based
Method: Hemolytic activity of triazine compounds is assessed using fresh sheep erythrocytes (Fitzgerald Inc., Concord, Mass.). The red blood cell suspension is incubated in PBS buffer (pH 7.2) with varying concentrations of sample stocks at 37° C. for 30 minutes, and then spun down at 3,000 rpm for 10 mins. The resulting supernatant is diluted by a factor of 40 with distilled water. The absorbance of the supernatant at 540 nm is measured using a Genesys 5 Spectrophotometer. Zero % and 100% hemolysis controls are obtained by incubating the cells with buffer and 1% Triton-X, respectively.
Hemolytic activity of three triazine compounds Is assessed on fresh sheep erythrocytes (Fitzgerald Inc., Concord, Mass.). The red blood cell suspension Is incubated in PBS buffer (pH 7.2) with varying concentrations of sample stocks at 37° C. for 30 minutes, and then spun down at 3,000 rpm for 10 mins. The resulting supernatant is diluted by a factor of 40 in distilled water. The absorbance of the supernatant at 540 nm is measured using a Genesys 5 Spectrophotometer. Zero hemolysis and 100% hemolysis controls are obtained by incubating the cells with buffer and 1% Triton-X, respectively. Sample concentration yielding 50% hemolysis is used as hemolytic dose (HD50) determined from dose-response curves.

A. baumannii [1] = assay: Evolution of resistance on exposure to sublethal concentrations; format: cell-based; conditions: 400 generations of exposure to sublethal concentrations
Source text: FIG. 1 graphically depicts the experimental evaluation of the ability of A. baumannii to evolve resistance to sublethal TN5 and the AMP indolicidin relative to two antibiotics in current use. Changes in the IC50 of cultures exposed to sublethal doses of TN5 are expressed as ratios of the new to original values. For reference, the response of these cells to two current antibiotics is shown.
In particular, FIG. 1 depicts the results of the experimental evaluation of the ability of A. baumannii to evolve resistance to sublethal TN5 and the AMP indolicidin relative to two antibiotics in current use. Changes in the IC50 of cultures exposed to sublethal doses of TN5 are expressed as ratios of the new to original values. For reference, the response of these cells to ciprofloxacin and gentamycin, two current antibiotics is shown.

A. baumannii [2] = assay: Growth inhibition (broth microdilution), A. baumannii; format: cell-based, Acinetobacter baumannii; conditions: Table 1
Source text: as §1, §2

[3] = test system: E. coli RP437/pRSH103 biofilm; assay: Biofilm formation in 96 well plate (crystal violet, OD540); format: cell-based
Method: This assay is based on the protocols described previously (Li, 2001 #745; Pratt, 1998 #725) with slight modifications. Briefly, E. coli RP437 or the test strain is used to form biofilms in 96 well plates in the presence of dendrimer peptides (RW)4D or other agents. An overnight culture of E. coli RP437 grown in LB medium is used to inoculate LB medium in 96 well plates to an OD600 of 0.05. The peptides can be added to a final concentration of 0, 5, 10, 20, or 40 μM, respectively. Four replicates are tested for each condition. All samples are incubated at 37° C. without shaking for 24 hours to form the film. Then planktonic cells are removed and the plates with biofilms are washed three times with DI H2O and dried by gentle patting on a piece of paper towel. To stain the biofilms, 300 μL of 0.1% crystal violet is added into each well and incubated for 20 minutes at room temperature. Then the plates are washed three times with DI H2O to remove extra staining dye. OD540 is then measured to quantify the biofilm on the bottom of each well.
(§3) The strain for this experiment used was E. coli RP437/pRSH103, a strong film forming strain. The surface studied was that of a 96 well plate. Culture conditions were 24 hours or 48 hours of incubation in Luria-Bertani Broth (LB) supplemented with 10 μg/mL tetracycline at 37° C. The following assays were performed:
(§4) 1. Measurement of total cell growth in each well using OD600. 2. Quantification of the biofilm at the bottom of each well by staining with 0.1% crystal violet and reading OD540.
2. Quantification of total biofilm by dissolving the crystal violet with ethanol and reading at OD540 Absorbance at 540 nm and 600 nm with the medium and triazine only (no cells) was also measured to control the results by subtracting the background reading.

[4] = test system: E. coli RP437/pRSH103 planktonic cells; assay: Total planktonic cell growth (OD600); format: cell-based; conditions: concentration range 0-5 μg/mL
Method: as §3, §4

[5] = Escherichia coli, D31, Table 2, read-out: E. Coli MIC50
[6] = Escherichia coli, D31, Table 2, read-out: E. Coli MIC90
[7] = Escherichia coli, D31, Table 3, read-out: E. coli IC50
[8] = Staphylococcus aureus, Table 2, read-out: S. Aureus MIC50
[9] = Staphylococcus aureus, Table 2, read-out: S. Aureus MIC90

| Compound | MIC50 (E. coli D31; [5]) [µg/mL] | MIC90 (E. coli D31; [6]) [µg/mL] | MIC50 (B. subtilis; Table 2) [µg/mL] | MIC90 (B. subtilis; Table 2) [µg/mL] | IC50 (B. subtilis) [µg/mL] | MIC50 (S. aureus; [8]) [µg/mL] | MIC90 (S. aureus; [9]) [µg/mL] | IC50 (S. aureus; Staphylococcus aureus) [µg/mL] | HD50 (fresh sheep erythrocytes; Table 3) [µg/mL] | Acquired resistance (change in IC50, ratio of new to original) (A. baumannii [1]) | MIC50 (A. baumannii [2]) [µg/mL] | MIC90 (A. baumannii [2]) [µg/mL] | MIC50 (E. coli D31; E. coli D31, Table 1) [µg/mL] | MIC90 (E. coli D31; E. coli D31, Table 1) [µg/mL] | MIC50 (S. aureus; S. aureus, Table 1) [µg/mL] | MIC90 (S. aureus; S. aureus, Table 1) [µg/mL] | HD50 (fresh sheep erythrocytes; 50% hemolysis, Table 1) [µg/mL] | also measured |
| --- | --- | --- | --- | --- | --- | --- | --- | --- | --- | --- | --- | --- | --- | --- | --- | --- | --- | --- |
| N=C(N)NCCNc1nc(NCCc2c[nH]c3ccccc23)nc(NCCc2c[nH]c3ccccc23)n1 [TZ-WRW] | 4.1 (≈ 8.24 µM) | 9.1 (≈ 18.3 µM) | 2.9 (≈ 5.83 µM) | 5.1 (≈ 10.2 µM) | 2.9 (≈ 5.83 µM) | 3.3 (≈ 6.63 µM) | 3.5 (≈ 7.03 µM) | 3.3 (≈ 6.63 µM) | 43.6 |  |  |  |  |  |  |  |  | IC50 (E. coli D31; [7]): 4.1 µg/mL (≈ 8.24 µM) |
| O=C(O)c1cn(C2CC2)c2cc(N3CCNCC3)c(F)cc2c1=O [ciprofloxacin] |  |  |  |  |  |  |  |  |  | significant increase in the IC50 |  |  |  |  |  |  |  |  |
| CN[C@H](CC(C)C)C(=O)N[C@H]1C(=O)N[C@@H](CC(N)=O)C(=O)N[C@H]2C(=O)N[C@H]3C(=O)N[C@H](C(=O)N[C@H](C(=O)O)c4cc(O)cc(O)c4-c4cc3ccc4O)[C@H](O)c3ccc(c(Cl)c3)Oc3cc2cc(c3O[C@@H]2O[C@H](CO)[C@@H](O)[C@H](O)[C@H]2O[C@H]2C[C@](C)(N)[C@H](O)[C@H](C)O2)Oc2ccc(cc2Cl)[C@H]1O [Vancomycin, reference compound] |  |  |  |  |  |  |  |  |  | marked contrast |  |  |  |  |  |  |  | MIC50 (E. coli D31; Escherichia coli, D31, read-out: E. Coli MIC50): 192 µg/mL (≈ 132 µM); MIC90 (E. coli D31; Escherichia coli, D31, read-out: E. Coli MIC90): > 200 µg/mL; MIC50 (B. subtilis): < 0.8 µg/mL; MIC90 (B. subtilis): < 0.8 µg/mL; MIC50 (S. aureus; Staphylococcus aureus, read-out: S. Aureus MIC50): 0.8 µg/mL (≈ 0.552 µM); MIC90 (S. aureus; Staphylococcus aureus, read-out: S. Aureus MIC90): 1.2 µg/mL (≈ 0.828 µM) |
| CCCCN(CCCC)CCCNc1nc(NCc2ccccc2)nc(NCc2cccc3ccccc23)n1 [TN4] |  |  |  |  |  |  |  |  |  |  | 302.5 (≈ 575 µM) | 462.5 (≈ 880 µM) | 18.8 (≈ 35.8 µM) | 62.5 (≈ 119 µM) | 68 (≈ 129 µM) | 117.5 (≈ 223 µM) | 221.3 |  |
| NCCCNc1nc(NCCc2c[nH]c3ccccc23)nc(NCCc2c[nH]c3ccccc23)n1 [TZ-WKW] | 4.5 (≈ 9.58 µM) | 6 (≈ 12.8 µM) | 1.5 (≈ 3.19 µM) | 2.3 (≈ 4.9 µM) | 1.5 (≈ 3.19 µM) | 3.4 (≈ 7.24 µM) | 4.4 (≈ 9.37 µM) | 3.4 (≈ 7.24 µM) | 65 |  |  |  |  |  |  |  |  | IC50 (E. coli D31; Escherichia coli, D31, read-out: E. coli IC50): 4.5 µg/mL (≈ 9.58 µM) |
| CCCCN(CCCC)CCCNc1nc(NCCc2c[nH]c3ccccc23)nc(NCCc2c[nH]c3ccccc23)n1 [TZ-WK(Bu)2W] | 21.3 (≈ 36.6 µM) | 55.2 (≈ 94.9 µM) | 1 (≈ 1.72 µM) | 3.1 (≈ 5.33 µM) | 1 (≈ 1.72 µM) | 1.8 (≈ 3.09 µM) | 2.4 (≈ 4.13 µM) | 1.8 (≈ 3.09 µM) | 91.5 |  |  |  |  |  |  |  |  | IC50 (E. coli D31; [7]): 21.3 µg/mL (≈ 36.6 µM) |
| NCCCCNc1nc(NCc2ccccc2)nc(Nc2cccc3ccccc23)n1 [TN3] |  |  |  |  |  |  |  |  |  |  | 50.8 (≈ 123 µM) | 77.4 (≈ 187 µM) | 40 (≈ 96.7 µM) | 84.8 (≈ 205 µM) | 50.1 (≈ 121 µM) | 71.3 (≈ 172 µM) | 901.9 |  |
| gentamycin |  |  |  |  |  |  |  |  |  | marked contrast; also recorded: significant increase in the IC50 |  |  |  |  |  |  |  |  |
| NCCCCNc1nc(NCc2ccccc2)nc(NCc2cccc3ccccc23)n1 [TN5] |  |  |  |  |  |  |  |  |  | does not acquire resistance | 3 (≈ 7.02 µM) | 5.1 (≈ 11.9 µM) | 4.75 (≈ 11.1 µM) | 8.9 (≈ 20.8 µM) | 5.9 (≈ 13.8 µM) | 9.8 (≈ 22.9 µM) | 167.5 | Biofilm formation ([3]; E. coli): prevents film formation; Biofilm formation ([3]; E. coli, listed as TN-5): prevents formation of biofilms; Biofilm formation ([3]; at 1, 5, 10 μg/mL, 24 or 48 hours in LB): inhibited biofilm formation; Growth of planktonic cells [4]: does not inhibit growth of planktonic cells |
| CCCCN(CCCC)CCCNc1nc(NCc2ccccc2)nc(Nc2cccc3ccccc23)n1 [TN2] |  |  |  |  |  |  |  |  |  |  | 12.8 (≈ 25 µM) | 15.8 (≈ 30.9 µM) | 26.9 (≈ 52.6 µM) | 55.6 (≈ 109 µM) | 12.1 (≈ 23.6 µM) | 14.55 (≈ 28.4 µM) | 840.8 |  |
